Entries after “also recorded” stand apart in the source; their conditions may differ.
Assays:
adult S. mansoni worms = experiment: Ex vivo adult S. mansoni phenotypic screen (descriptors and severity scores); parameters: species or system Schistosoma mansoni; key to Descriptors 2 h / Descriptors 5 h / Descriptors 24 h: degenerating (deg); uncoordinated (unc); slow (S); on sides, inability of worms to adhere to well floor with either the oral or ventral sucker; teg bleb, damage to the surface tegument; conditions: 10 μM compound; for Descriptors 2 h / Descriptors 5 h / Descriptors 24 h: ex vivo adult worms
Procedure: The 12 compounds identified from the SPR screen were tested against ex vivo adult S. mansoni worms to investigate whether they induce phenotypic alterations in the parasite. Compound effects at 10 μM were assessed at 2, 5, and 24 h, and activity was partially quantified using an observation-based severity scoring system that is designed to holistically assess the many different responses to chemical insult of which the schistosome is capable.[26],[27] For those compounds eliciting phenotypic changes, WormAssay was also employed as an additional readout to measure average worm motility per well.[28],[29] Four compounds, GW696155, GSK986310, GSK1520489, and SB-710363, produced a variety of effects in the worm (Figure 1; Table 2; Table S1). GW696155 generated the strongest responses. […] Although, SPR identified 12 compounds against the SmVKR2KD (Table 1), the absence of phenotypic activity for eight of these compounds (Table S2) could be due to their poor uptake by the parasite. It is also possible that the phenotypic changes noted for the four active compounds are only partially related or unrelated to engagement of the SmVKR2 target. […]
Preparation of S. mansoni
The acquisition, preparation and in vitro maintenance of S. mansoni have been described 11, 12.
We use a Naval Medical Research Institute (NMRI) isolate of S. mansoni that is cycled between Biomphalaria glabrata snails and male Golden Syrian hamsters (infected at 4-6 weeks of age) as intermediate and definitive hosts, respectively. Briefly, adult worms were harvested from hamsters 42 days post-infection in RPMI or DMEM, and washed five times prior to maintenance overnight at 37 °C and 5% CO2 in Basch medium 13 containing 4% heat-inactivated FBS, 100 μg/ml streptomycin and 100 U/ml penicillin. activity against adult Ex vivoS. mansoni
Ex vivo screens with adults employed 24-well flat-bottomed plates and approximately five males, two to three of which were paired to females. Screens incorporated a final compound concentration of 10 μM in DMSO (0.5% final concentration). The complex and often dynamic phenotypic responses that the schistosome parasite is capable of were observed using a Zeiss Axiovert A1 inverted microscope at 2, 5 and 24 h. Observations were classified using a constrained nomenclature that involves simple “descriptors” to convey changes in shape, motility and appearance, and the inability of the male worm to adhere to the bottom of the well, compared to DMSO controls 11, 14, 15. Each descriptor was given a value of 1 and these were added up to yield a “severity score” with a maximum of 4. Evidence of degeneracy or death was awarded a value of 4 as was damage to the tegument (surface), on the understanding this would compromise survival in vivo. Scores were averaged across 3-5 individual experiments.

adult S. mansoni = experiment: WormAssay average worm motility per well; parameters: species or system Schistosoma mansoni; conditions: 10 μM compound, 2, 5 and 24 h
Procedure: The 12 compounds identified from the SPR screen were tested against ex vivo adult S. mansoni worms to investigate whether they induce phenotypic alterations in the parasite. Compound effects at 10 μM were assessed at 2, 5, and 24 h, and activity was partially quantified using an observation-based severity scoring system that is designed to holistically assess the many different responses to chemical insult of which the schistosome is capable.[26],[27] For those compounds eliciting phenotypic changes, WormAssay was also employed as an additional readout to measure average worm motility per well.[28],[29] Four compounds, GW696155, GSK986310, GSK1520489, and SB-710363, produced a variety of effects in the worm (Figure 1; Table 2; Table S1). GW696155 generated the strongest responses. […] Although, SPR identified 12 compounds against the SmVKR2KD (Table 1), the absence of phenotypic activity for eight of these compounds (Table S2) could be due to their poor uptake by the parasite. It is also possible that the phenotypic changes noted for the four active compounds are only partially related or unrelated to engagement of the SmVKR2 target.
Figure 1 Changes in the average motility of adult S. mansoni as a function of time, as measured by WormAssay. Significance was determined by Student’s t-test (two-tailed): *P < 0.05, **p < 0.005, ***P < 0.0005. Data were derived from three to five biological assays with 10 μM compound. […]
The assay was performed according to the manufacturer’s recommendations without any modifications. The optimal concentration of the SmVKR2KD in the assay was established as µM. The autophosphorylation activity was measured at an ATP concentration of […] to aid the identification of competitive inhibitors as recommended by the ADP-Glo Kinase Assay (Promega) protocol. The autophosphorylation activity of the SmVKR2KD was measured in the presence and absence of inhibitors at various concentrations. […] The luminescence was measured using a CLARIOstar plate reader. […]

SmVKR2 = system: SmVKR2; parameters: method as in PMID 23696913; conditions: cited from earlier work
SmVKR1 = system: SmVKR1; parameters: method as in PMID 23696913; conditions: cited from earlier work
schistosomes = system: schistosomes; parameters: method as in PMID 23696913; conditions: cited from earlier work

## Cc1n[nH]c2cc(Nc3ccnc(Nc4cccc(CN5CCOCC5)c4)n3)ccc12 [GW682569]
Adult S. mansoni worms
  Descriptors 2 h: none
  Descriptors 5 h: none
  Descriptors 24 h: none
Adult S. mansoni worms; maximum score 4
  Severity scores 2 h: 0
  Severity scores 5 h: 0
  Severity scores 24 h: 0

## CC(C)Oc1ccc2c(-c3ccnc(Nc4ccc(N5CCN(C)CC5)cc4)n3)cnn2n1 [GW696155]
Adult S. mansoni worms
  Descriptors 2 h: decreased motility and lost their ability to adhere to the floor of the well; also recorded: S, on sides
  Descriptors 5 h: Dark, S, on sides
  Descriptors 24 h: worm degeneration and damage to the surface tegument in the form of blebs or bubbles; also recorded: Deg, S, on sides, teg bleb
Adult S. mansoni worms; maximum score 4
  Severity scores 2 h: 2
  Severity scores 5 h: 3
  Severity scores 24 h: 4
Adult S. mansoni
  average worm motility (WormAssay): decrease in average worm motility over time

## CC(C)(C)c1cc(C=C(C#N)C#N)cc(Br)c1O [tyrphostin AG1024]
SmVKR2
  inhibition of SmVKR2: inhibited
SmVKR1
  inhibition of SmVKR1: inhibited
schistosomes
  apoptosis and egg production in schistosomes: concentration-dependent apoptosis and cessation of egg production

## CNC(=O)c1ccccc1Nc1nc(Nc2cccc(CS(C)(=O)=O)c2)ncc1C [GSK1520489]
Adult S. mansoni worms
  Descriptors 2 h: unc
  Descriptors 5 h: unc
  Descriptors 24 h: unc
Adult S. mansoni worms; maximum score 4
  Severity scores 2 h: 1
  Severity scores 5 h: 1
  Severity scores 24 h: 1
Adult S. mansoni worms; time not stated
  phenotypic activity assessed visually: mild uncoordinated motility
Adult S. mansoni
  average worm motility (WormAssay): without a long-term decrease in average motility

## NCCNS(=O)(=O)c1ccc(-c2ccnc3[nH]ccc23)cc1 [GSK977617]
Adult S. mansoni worms
  Descriptors 2 h: none
  Descriptors 5 h: none
  Descriptors 24 h: none
Adult S. mansoni worms; maximum score 4
  Severity scores 2 h: 0
  Severity scores 5 h: 0
  Severity scores 24 h: 0

## CS(=O)(=O)Nc1ccc(-c2ccnc3[nH]ccc23)cc1 [GSK993273]
Adult S. mansoni worms
  Descriptors 2 h: none
  Descriptors 5 h: none
  Descriptors 24 h: none
Adult S. mansoni worms; maximum score 4
  Severity scores 2 h: 0
  Severity scores 5 h: 0
  Severity scores 24 h: 0

## Nc1n[nH]c2cnc(-c3ccccc3)cc12 [SB-642124]
Adult S. mansoni worms
  Descriptors 2 h: none
  Descriptors 5 h: none
  Descriptors 24 h: none
Adult S. mansoni worms; maximum score 4
  Severity scores 2 h: 0
  Severity scores 5 h: 0
  Severity scores 24 h: 0

## Cc1cccc(Nc2nc(N[C@H]3CCCC[C@H]3N)ncc2C(N)=O)c1 [GSK986310]
Adult S. mansoni worms
  Descriptors 2 h: S
  Descriptors 5 h: S
  Descriptors 24 h: S
Adult S. mansoni worms; maximum score 4
  Severity scores 2 h: 1
  Severity scores 5 h: 1
  Severity scores 24 h: 1
Adult S. mansoni worms; time not given, maximum score 4
  severity score: 1
Adult S. mansoni
  average worm motility (WormAssay): milder effect in decreasing worm movement

## NC(=O)Nc1sc(-c2ccc(F)cc2)cc1C(N)=O [GW789449]
Adult S. mansoni worms
  Descriptors 2 h: none
  Descriptors 5 h: none
  Descriptors 24 h: none
Adult S. mansoni worms; maximum score 4
  Severity scores 2 h: 0
  Severity scores 5 h: 0
  Severity scores 24 h: 0

## Cc1cccc(Nc2nc(NCCN)ncc2C(N)=O)c1 [GSK1292139]
Adult S. mansoni worms
  Descriptors 2 h: none
  Descriptors 5 h: none
  Descriptors 24 h: none
Adult S. mansoni worms; maximum score 4
  Severity scores 2 h: 0
  Severity scores 5 h: 0
  Severity scores 24 h: 0

## CN(C)CCNS(=O)(=O)c1ccc(-c2ccnc3[nH]ccc23)cc1 [GSK977620]
Adult S. mansoni worms
  Descriptors 2 h: none
  Descriptors 5 h: none
  Descriptors 24 h: none
Adult S. mansoni worms; maximum score 4
  Severity scores 2 h: 0
  Severity scores 5 h: 0
  Severity scores 24 h: 0

## Nc1nc(N)c2[nH]c(-c3ccccc3)nc2n1 [SKF-12778]
Adult S. mansoni worms
  Descriptors 2 h: none
  Descriptors 5 h: none
  Descriptors 24 h: none
Adult S. mansoni worms; maximum score 4
  Severity scores 2 h: 0
  Severity scores 5 h: 0
  Severity scores 24 h: 0

— article PMC9661718, “Identification of Inhibitors of the Schistosoma mansoni VKR2 Kinase Domain” (ACS Medicinal Chemistry Letters, 2022)
